Experimental data: paper PMC9318275, “A Novel ALDH1A1 Inhibitor Blocks Platinum-Induced Senescence and Stemness in Ovarian Cancer” (Cancers, 2022)

Key:
ALDH1A1 [1] = biological target: T1, ALDH1A1 (Homo sapiens, UniProt P00352); experiment: X-ray crystal structure at […] Å (complex with NAD and CM38); type: binding
T1 sequence (P00352 2-501): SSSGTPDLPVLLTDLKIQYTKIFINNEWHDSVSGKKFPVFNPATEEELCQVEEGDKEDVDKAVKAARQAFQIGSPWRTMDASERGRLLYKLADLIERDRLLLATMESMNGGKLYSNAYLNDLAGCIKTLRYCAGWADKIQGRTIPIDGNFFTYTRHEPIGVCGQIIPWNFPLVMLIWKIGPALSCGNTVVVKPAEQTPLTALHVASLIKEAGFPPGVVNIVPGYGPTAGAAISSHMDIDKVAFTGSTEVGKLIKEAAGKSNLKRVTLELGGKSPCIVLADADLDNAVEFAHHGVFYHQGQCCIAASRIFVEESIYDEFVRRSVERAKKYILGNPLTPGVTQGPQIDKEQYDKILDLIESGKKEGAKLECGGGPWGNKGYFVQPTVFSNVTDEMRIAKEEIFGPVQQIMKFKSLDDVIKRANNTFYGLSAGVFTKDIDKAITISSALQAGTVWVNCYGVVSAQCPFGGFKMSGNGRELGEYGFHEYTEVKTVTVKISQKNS

ALDH1A2 = biological target: T2, ALDH1A2 (Homo sapiens, UniProt O94788); experiment: biochemical; set-up: NAD(P)H formation at 340 nm, purified recombinant ALDH1A enzyme, propionaldehyde and NAD+; conditions: read-out: ALDH1A2 % activity versus control at 20 uM
T2 sequence (O94788 1-518): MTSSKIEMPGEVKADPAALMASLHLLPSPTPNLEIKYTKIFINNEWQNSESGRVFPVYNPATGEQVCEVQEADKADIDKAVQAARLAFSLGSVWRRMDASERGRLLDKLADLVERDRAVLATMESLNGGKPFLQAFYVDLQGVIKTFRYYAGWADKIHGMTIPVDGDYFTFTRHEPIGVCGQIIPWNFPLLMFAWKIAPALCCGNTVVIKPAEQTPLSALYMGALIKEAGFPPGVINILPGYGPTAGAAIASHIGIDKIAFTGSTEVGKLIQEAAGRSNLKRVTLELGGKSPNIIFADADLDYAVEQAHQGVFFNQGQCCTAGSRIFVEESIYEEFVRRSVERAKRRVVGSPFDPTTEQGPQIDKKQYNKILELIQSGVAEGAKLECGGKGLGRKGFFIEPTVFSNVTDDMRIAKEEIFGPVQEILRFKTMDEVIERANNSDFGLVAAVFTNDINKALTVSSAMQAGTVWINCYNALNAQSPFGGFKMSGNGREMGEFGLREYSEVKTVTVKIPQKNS
Method: (§1) Human ALDH1A1, ALDH1A2, and ALDH1A3 were prepared and purified as previously described. The inhibition of ALDH activity by compounds and the IC50 curves were determined by measuring the formation of NAD(P)H spectrophotometrically at 340 nm (molar extinction coefficient of 6200 M^−1 cm^−1) on a Beckman DU-640 as well as a Spectramax 340 PC spectrophotometer (GMI, Ramsey, NJ, USA) using a purified recombinant enzyme. The reaction components for assays with ALDH1A enzymes consisted of 100–200 nM enzyme, 200 µM NAD+, 100 µM propionaldehyde, and 1% DMSO in 25 mM BES buffer at pH 7.5. All assays were performed at 25 °C and were initiated by the addition of substrate after a 2 min incubation period. The purification of and the reaction conditions for the other ALDH isoenzymes were as described in [27]. […] The data were fit to the four-parameter EC50 equation using SigmaPlot (v14), and the values represent the means/SEM of three independent experiments (n = 3). Figure S1. X-Ray Crystallography of CM38 with ALDH1A1 and characterization of inhibitor activ-ity (A). Structure of Human ALDH1A1 with bound compound CM38. […] (B). Inhibition of ALDH activity by compounds and IC50 curves were determined by measuring the formation of NAD(P)H spectro-photometrically at 340 nm using purified recombinant enzymes. (C). […]

ALDH1A3 = biological target: T3, ALDH1A3 (Homo sapiens, UniProt P47895); experiment: biochemical; set-up: NAD(P)H formation at 340 nm, purified recombinant ALDH1A enzyme, propionaldehyde and NAD+; conditions: read-out: ALDH1A3 % activity versus control at 20 uM
T3 sequence (P47895 1-512): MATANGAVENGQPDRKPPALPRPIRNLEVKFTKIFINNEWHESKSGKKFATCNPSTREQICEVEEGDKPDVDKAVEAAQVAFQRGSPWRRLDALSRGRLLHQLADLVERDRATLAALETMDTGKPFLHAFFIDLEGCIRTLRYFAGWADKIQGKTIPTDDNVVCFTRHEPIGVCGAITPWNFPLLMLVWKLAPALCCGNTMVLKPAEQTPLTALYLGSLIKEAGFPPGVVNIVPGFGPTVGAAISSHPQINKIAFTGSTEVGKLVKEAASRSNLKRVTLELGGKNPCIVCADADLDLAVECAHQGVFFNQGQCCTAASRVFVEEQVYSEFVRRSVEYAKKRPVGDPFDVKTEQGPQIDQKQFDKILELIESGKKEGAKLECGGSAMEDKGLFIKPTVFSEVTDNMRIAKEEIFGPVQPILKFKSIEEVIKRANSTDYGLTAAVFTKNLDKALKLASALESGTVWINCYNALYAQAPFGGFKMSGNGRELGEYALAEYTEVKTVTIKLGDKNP
Method: as §1

ALDH1A1 [2] = biological target: T1, ALDH1A1; experiment: purified recombinant enzyme, NAD(P)H formation at […] nm with propionaldehyde as substrate; type: biochemical
ALDH1B1 = biological target: T4, ALDH1B1 (Homo sapiens, UniProt P30837); experiment: biochemical; set-up: NAD(P)H formation at 340 nm, purified recombinant ALDH isoenzymes; conditions: read-out: ALDH1B1 % activity versus control at 20 uM
T4 sequence (P30837 1-517): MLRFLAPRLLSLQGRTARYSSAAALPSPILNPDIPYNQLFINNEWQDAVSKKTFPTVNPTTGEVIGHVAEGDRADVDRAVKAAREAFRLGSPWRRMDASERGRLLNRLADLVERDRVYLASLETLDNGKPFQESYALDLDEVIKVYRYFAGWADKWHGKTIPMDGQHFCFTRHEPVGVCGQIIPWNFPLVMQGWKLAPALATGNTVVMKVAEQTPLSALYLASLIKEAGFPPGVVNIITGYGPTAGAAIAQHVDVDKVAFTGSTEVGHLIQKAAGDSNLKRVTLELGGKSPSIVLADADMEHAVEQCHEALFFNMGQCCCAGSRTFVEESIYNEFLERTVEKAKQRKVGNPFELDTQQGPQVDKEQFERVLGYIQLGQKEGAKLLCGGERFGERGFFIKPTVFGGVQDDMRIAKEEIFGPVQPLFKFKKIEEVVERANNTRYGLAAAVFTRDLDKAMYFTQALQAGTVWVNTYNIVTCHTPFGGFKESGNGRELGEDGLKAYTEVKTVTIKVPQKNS
Method: as §1

ALDH2 = biological target: T5, ALDH2 (Homo sapiens, UniProt P05091); experiment: biochemical; set-up: NAD(P)H formation at 340 nm, purified recombinant ALDH isoenzymes; conditions: read-out: ALDH2 % activity versus control at 20 uM
T5 sequence (P05091 1-517): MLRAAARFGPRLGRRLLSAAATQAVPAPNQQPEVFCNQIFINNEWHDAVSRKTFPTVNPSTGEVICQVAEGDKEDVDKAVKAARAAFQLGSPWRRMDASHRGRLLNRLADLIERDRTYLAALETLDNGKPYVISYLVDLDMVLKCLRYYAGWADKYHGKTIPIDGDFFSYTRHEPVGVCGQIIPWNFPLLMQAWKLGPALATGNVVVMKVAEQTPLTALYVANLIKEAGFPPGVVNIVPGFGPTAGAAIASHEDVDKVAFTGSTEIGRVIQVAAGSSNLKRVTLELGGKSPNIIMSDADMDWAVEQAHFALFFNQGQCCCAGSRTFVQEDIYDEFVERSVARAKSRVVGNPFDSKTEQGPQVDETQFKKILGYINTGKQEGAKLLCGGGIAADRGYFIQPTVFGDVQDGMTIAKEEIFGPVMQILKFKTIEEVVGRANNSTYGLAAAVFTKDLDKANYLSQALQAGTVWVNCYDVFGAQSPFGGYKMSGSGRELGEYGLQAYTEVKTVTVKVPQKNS
Method: as §1

remaining activity at 20 µM (ALDH1A2) [%]	remaining activity at 20 µM (ALDH1A3) [%]	IC50 (ALDH1A1 [2]) [µM]	remaining activity at 20 µM (ALDH1B1) [%]	remaining activity at 20 µM (ALDH2) [%]	Compound	X-ray crystal structure at 1.8 Å (complex with NAD and CM38) (ALDH1A1 [1])
					NC(=O)c1ccc[n+]([C@@H]2O[C@H](COP(=O)([O-])OP(=O)(O)OC[C@H]3O[C@@H](n4cnc5c(N)ncnc54)[C@H](O)[C@@H]3O)[C@@H](O)[C@H]2O)c1 [NAD]	we determined the structure of ALDH1A1 in a complex with both NAD and CM38 by X-ray crystallography
63 ± 4.2	85 ± 4	0.47	67 ± 3.9	76 ± 20	Cc1c(C(=O)N2CCCCC2)oc2ccc3c(c12)C(=O)CC1(CCCCCC1)O3 [compound 974]	
